For test [1], the target named is mGlu3 (Rattus norvegicus (Rat), UniProt P31422). Put plainly: mGlu3 GIRK thallium flux assay.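 For all read-outs here: kinetic fluorescence slope read shortly after thallium plus agonist addition, scaled between vehicle and maximal agonist control.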 The following applies: for mGlu3 PAM Max / EC50: PAM mode, mean ± SEM; for mGlu3 PAM Max: % Glutamate Max; for EC50: read-out: mGlu3 PAM EC50, test compound, then EC20 glutamate […] later in the presence of thallium; for Emax: read-out: mGlu3 PAM Max.
Test [2] has as its target mGlu2 (Rattus norvegicus (Rat), UniProt P31421). Put plainly: mGlu2 GIRK thallium flux assay.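 For all read-outs here: Cell-based assay, rate of fluorescence rise right after thallium plus agonist addition read on a kinetic imaging plate reader, normalized to vehicle and maximal agonist control.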 To be noted: for mGlu2 PAM Max / EC50: PAM mode, mean ± SEM, at least three experiments; for mGlu2 PAM Max: % Glutamate Max; for EC50: read-out: mGlu2 PAM EC50, test compound, then EC20 glutamate […] later in the presence of thallium; for Emax: read-out: mGlu2 PAM Max.

One may read the EC50 as the concentration needed to bring the measured effect to its halfway point.

Sequence of mGlu2 (P31421 19-872): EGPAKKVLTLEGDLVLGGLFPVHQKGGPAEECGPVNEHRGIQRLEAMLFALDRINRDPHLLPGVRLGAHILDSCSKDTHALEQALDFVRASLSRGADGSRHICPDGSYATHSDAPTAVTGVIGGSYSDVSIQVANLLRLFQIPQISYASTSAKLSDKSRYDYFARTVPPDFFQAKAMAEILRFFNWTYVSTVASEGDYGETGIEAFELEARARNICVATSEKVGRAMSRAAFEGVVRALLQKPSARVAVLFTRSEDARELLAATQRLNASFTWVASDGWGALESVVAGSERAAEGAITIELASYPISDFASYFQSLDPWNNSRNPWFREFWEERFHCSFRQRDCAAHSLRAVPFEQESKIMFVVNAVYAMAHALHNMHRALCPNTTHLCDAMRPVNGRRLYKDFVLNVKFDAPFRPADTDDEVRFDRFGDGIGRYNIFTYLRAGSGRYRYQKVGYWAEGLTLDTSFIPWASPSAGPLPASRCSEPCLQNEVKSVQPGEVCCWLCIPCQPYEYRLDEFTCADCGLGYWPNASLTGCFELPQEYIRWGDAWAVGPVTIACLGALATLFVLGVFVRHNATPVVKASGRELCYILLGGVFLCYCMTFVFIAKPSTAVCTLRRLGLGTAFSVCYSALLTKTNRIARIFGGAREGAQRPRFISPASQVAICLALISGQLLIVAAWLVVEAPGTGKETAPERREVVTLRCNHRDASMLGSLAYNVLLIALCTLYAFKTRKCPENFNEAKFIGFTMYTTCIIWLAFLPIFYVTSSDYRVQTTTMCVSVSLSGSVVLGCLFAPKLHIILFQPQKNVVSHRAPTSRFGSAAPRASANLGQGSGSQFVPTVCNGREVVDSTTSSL
Sequence of mGlu3 (P31422 23-879): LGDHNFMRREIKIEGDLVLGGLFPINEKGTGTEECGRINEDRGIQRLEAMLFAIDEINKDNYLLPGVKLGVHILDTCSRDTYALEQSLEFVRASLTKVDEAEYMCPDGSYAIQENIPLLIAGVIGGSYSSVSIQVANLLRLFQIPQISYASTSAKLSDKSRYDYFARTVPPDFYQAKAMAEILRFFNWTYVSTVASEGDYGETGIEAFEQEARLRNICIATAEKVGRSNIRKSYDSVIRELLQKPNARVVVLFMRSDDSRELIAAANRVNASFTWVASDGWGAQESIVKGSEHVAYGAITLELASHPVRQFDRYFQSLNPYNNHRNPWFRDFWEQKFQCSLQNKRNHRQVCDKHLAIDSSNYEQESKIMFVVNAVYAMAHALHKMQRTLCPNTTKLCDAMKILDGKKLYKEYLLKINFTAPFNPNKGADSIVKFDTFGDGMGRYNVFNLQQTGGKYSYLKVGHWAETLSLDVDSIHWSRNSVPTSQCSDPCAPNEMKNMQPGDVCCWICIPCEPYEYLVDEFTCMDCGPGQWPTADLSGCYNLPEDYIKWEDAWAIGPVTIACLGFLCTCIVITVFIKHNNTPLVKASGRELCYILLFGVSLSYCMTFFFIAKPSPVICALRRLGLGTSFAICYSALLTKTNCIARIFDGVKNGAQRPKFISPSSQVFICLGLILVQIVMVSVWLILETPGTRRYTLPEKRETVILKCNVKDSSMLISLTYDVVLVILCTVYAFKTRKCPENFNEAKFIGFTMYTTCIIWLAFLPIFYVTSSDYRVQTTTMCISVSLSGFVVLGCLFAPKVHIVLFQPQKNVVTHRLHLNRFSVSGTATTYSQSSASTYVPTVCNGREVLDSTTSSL

Turning to `COc1ccc(C(=O)N2CCN(S(C)(=O)=O)CC2)cc1OCCCCOc1ccc(C(=O)CC(C)(C)C)c(O)c1C` [compound 107, 1-{2-Hydroxy-4-[4-(2-methoxy-5-{[4-(methylsulfonyl)piperazinyl]carbonyl}phenoxy)butoxy]-3-methylphenyl}-3,3-dimethylbutan-1-one], in test [1], the “mGlu3 PAM Max” value is recorded as 22.9 ± 1.5% and the concentration for a half-maximal effect (EC50) was greater than 30 µM. In test [2], the “mGlu2 PAM Max” value amounted to 22.1 ± 1.1% and the EC50 is greater than 30 µM.
With `COc1ccc(C(=O)Nc2ccccc2)cc1OCCCCOc1ccc(C(=O)CC(C)(C)C)c(O)c1C` [compound 104, 3-(4-(4-(3,3-Dimethylbutanoyl)-3-hydroxy-2-methylphenoxy)butoxy)-4-methoxy-N-phenylbenzamide], the Emax in test [1] was determined as 27 ± 3.4%; in test [2], 23.1 ± 1.4%.
As for `CCN(CC)C(=O)c1ccc(OC)c(OCCCCOc2ccc(C(=O)CC(C)(C)C)c(O)c2C)c1` [compound 103, 3-(4-(4-(3,3-Dimethylbutanoyl)-3-hydroxy-2-methylphenoxy)butoxy)-N,N-diethyl-4-methoxybenzamide], in test [1], the half-maximal effective concentration (EC50) was determined as 0.497 ± 0.006 µM and the Emax came to 111 ± 3.4%. Further, in test [2], the EC50 was 0.608 ± 0.01 µM and the Emax turned out to be 96.4 ± 2.1%.
Consider `Cc1c(OCc2cccc(COc3ccc(C(=O)O)cc3)c2)ccc(C(=O)CC2CCCC2)c1O` [compound 126], for which the half-maximal effective concentration (EC50) is greater than 30 µM in test [1] and greater than 10 µM in test [2].
For `COc1ccc(-c2cccc(COc3ccc(C(=O)CC(C)(C)C)c(O)c3C)c2)cc1C(=O)O` [compound 140, 3′-((4-(3,3-Dimethylbutanoyl)-3-hydroxy-2-methylphenoxy)methyl)-4-methoxy-[1,1′-biphenyl]-3-carboxylic acid], the EC50 is 8.41 ± 4.84 µM in test [1] and 0.489 ± 0.073 µM in test [2]. In addition, the Emax in test [1] worked out at 67.2 ± 13.3%; in test [2], 86.1 ± 6.1%.
`Cc1c(OCc2cccc(COc3ccc(C#N)cc3)c2)ccc(C(=O)CC(C)C)c1C` [compound 115]: the EC50 in test [1] and in test [2] was greater than 30 µM each time.
In the case of `COc1ccc(-c2nnn[nH]2)cc1OCCCCOc1ccc(C(=O)CC(C)(C)C)c(O)c1C` [compound 92, 1-(2-Hydroxy-4-(4-(2-methoxy-5-(1H-tetrazol-5-yl)phenoxy)butoxy)-3-methylphenyl)-3,3-dimethylbutan-1-one], the Emax was found to be 96.7 ± 4% in test [1] and 91.2 ± 1.1% in test [2].
`Cc1c(OCc2cccc(-c3ccc(C(=O)O)c(Cl)c3)c2)ccc(C(=O)CC(C)(C)C)c1O` [compound 141, 3-Chloro-3′-((4-(3,3-dimethylbutanoyl)-3-hydroxy-2-methylphenoxy)methyl)-[1,1′-biphenyl]-4-carboxylic acid]: in test [1], the EC50 amounted to 0.656 ± 0.265 µM and the Emax is 54.9 ± 9.7%. In test [2], the concentration for a half-maximal effect (EC50) is 0.391 ± 0.103 µM and the Emax was determined as 67 ± 6.4%.
Turning to `COc1ccc(B(O)O)cc1OCCCCOc1ccc(C(=O)CC(C)(C)C)c(O)c1C` [compound 95, (3-(4-(4-(3,3-Dimethylbutanoyl)-3-hydroxy-2-methylphenoxy)butoxy)-4-methoxyphenyl)boronic acid], the 50% effective concentration (EC50) in test [1] was greater than 30 µM; in test [2], 3.01 ± 0.988 µM. Further, the Emax in test [1] was determined as 26.2 ± 11.7%; in test [2], 27.5 ± 2.7%.
The matching figures for `Cc1c(OCCCCOCc2cccc(-c3cccc(C(=O)O)c3)c2)ccc(C(=O)CC(C)(C)C)c1O` [Compound 187, 3′-((4-(4-(3,3-Dimethylbutanoyl)-3-hydroxy-2-methylphenoxy)butoxy)methyl)-[1,1′-biphenyl]-3-carboxylic acid]: 3.07 ± 0.632 µM, 1.57 ± 0.297 µM, 74.1 ± 7.8% and 93.4 ± 3.4%.
In the case of `Cc1c(OCc2cccc(-c3cccc(-c4nn[nH]n4)c3)c2)ccc(C(=O)CC(C)(C)C)c1O` [compound 152, 1-(4-((3′-(2H-Tetrazol-5-yl)-[1,1′-biphenyl]-3-yl)methoxy)-2-hydroxy-3-methylphenyl)-3,3-dimethylbutan-1-one], the figures for the Emax in test [1] and in test [2] were 98.9 ± 3.7% and 103 ± 1.8%, respectively.
Take `COc1ccc(-c2noc(=S)[nH]2)cc1OCCCCOc1ccc(C(=O)CC(C)(C)C)c(O)c1C` [compound 99, 1-(2-Hydroxy-4-(4-(2-methoxy-5-(5-thioxo-4,5-dihydro-1,2,4-oxadiazol-3-yl)phenoxy)butoxy)-3-methylphenyl)-3,3-dimethylbutan-1-one]: the EC50 in test [1] came to 1.15 ± 0.307 µM; in test [2], 1.03 ± 0.07 µM. The Emax in test [1] was 63.6 ± 5%; in test [2] it was 81%.
As to `Cc1c(OCCCCOc2ccc(F)c(C(=O)O)c2)ccc(C(=O)CC2CCCC2)c1C` [Compound 35, 5-(4-(4-(2-Cyclopentylacetyl)-2,3-dimethylphenoxy)butoxy)-2-fluorobenzoic acid], the EC50 in test [1] and in test [2] was greater than 30 µM throughout.
For `COc1ccc(C(=O)N2CCNCC2)cc1OCCCCOc1ccc(C(=O)CC(C)(C)C)c(O)c1C` [compound 105, 1-(2-Hydroxy-4-(4-(2-methoxy-5-(piperazine-1-carbonyl)phenoxy)butoxy)-3-methylphenyl)-3,3-dimethylbutan-1-one], the EC50 in test [1] and in test [2] was greater than 10 µM throughout. For the same compound, the figures for the Emax in test [1] and in test [2] were 49.7 ± 3.9% and 67.4 ± 1.9%, respectively.
As to `COC(=O)CCc1cc(OCCCCOc2ccc(C(=O)CC3CCCC3)c(O)c2C)ccc1O` [compound 86], the figures for the EC50 in test [1] and in test [2] were greater than 30 µM and greater than 10 µM, respectively.
For the compound `COc1ccc(-c2noc(=O)[nH]2)cc1OCCCCOc1ccc(C(=O)CC(C)(C)C)c(O)c1C` [compound 98, 3-(3-(4-(4-(3,3-Dimethylbutanoyl)-3-hydroxy-2-methylphenoxy)butoxy)-4-methoxyphenyl)-1,2,4-oxadiazol-5(4H)-one], in test [1], the 50% effective concentration (EC50) turned out to be 1.23 ± 0.185 µM and the Emax came out at 102 ± 4.7%. Also, in test [2], the concentration for a half-maximal effect (EC50) is 0.681 ± 0.09 µM and the Emax worked out at 101 ± 2.9%.
For `Cc1c(OCc2cccc(-c3cccc(S(=O)(=O)O)c3)c2)ccc(C(=O)CC(C)(C)C)c1O` [compound 164, 3′-((4-(3,3-Dimethylbutanoyl)-3-hydroxy-2-methylphenoxy)methyl)-[1,1′-biphenyl]-3-sulfonic acid], the Emax amounted to 103 ± 1.9% in test [1] and 101 ± 2.8% in test [2].
For the compound `Cc1c(OCCCCOc2ccccn2)ccc(C(=O)CC2CCCC2)c1C` [Compound 194], the half-maximal effective concentration (EC50) is greater than 30 µM in test [1] and greater than 10 µM in test [2].
For `Cc1c(OCc2ccnc(-c3cccc(C(=O)O)c3)c2)ccc(C(=O)CC(C)(C)C)c1O` [compound 149, 3-(4-((4-(3,3-Dimethylbutanoyl)-3-hydroxy-2-methylphenoxy)methyl)pyridin-2-yl)benzoic acid], in test [1], the concentration for a half-maximal effect (EC50) amounted to 0.203 ± 0.001 µM and the Emax came out at 112 ± 3.8%. In test [2], the EC50 is 0.23 ± 0.002 µM and the Emax was determined as 108 ± 1.2%.
The matching figures for `Cc1c(OCc2cccc(-c3cccc(C(=O)O)c3)c2)ccc(C(=O)CC(C)C)c1O` [compound 137, 3′-((3-Hydroxy-2-methyl-4-(3-methylbutanoyl)phenoxy)methyl)-[1,1′-biphenyl]-3-carboxylic acid]: 0.642 ± 0.151 µM, 76.8 ± 8%, 0.181 ± 0.028 µM and 85.8 ± 3.7%.
For `COC(=O)c1ccc(OCCCCOc2ccc(C(=O)CC3CCCC3)c(O)c2C)cc1` [Compound 17, Methyl 4-(4-(4-(2-cyclopentylacetyl)-3-hydroxy-2-methylphenoxy)butoxy)benzoate], the EC50 in test [1] and in test [2] was greater than 30 µM in each case.
As for `Cc1c(OCc2cncc(-c3cccc(C(=O)O)c3)c2)ccc(C(=O)CC(C)(C)C)c1O` [compound 150, 3-(5-((4-(3,3-Dimethylbutanoyl)-3-hydroxy-2-methylphenoxy)methyl)pyridin-3-yl)benzoic acid], in test [1], the concentration for a half-maximal effect (EC50) came to 0.345 ± 0.009 µM and the Emax was 107 ± 6.3%. Moreover, in test [2], the EC50 was 0.345 ± 0.002 µM and the Emax came to 107 ± 2.6%.
On to `Cc1c(OCc2cccc(-c3ccc(Cl)c(C(=O)O)c3)c2)ccc(C(=O)CC(C)C)c1O` [compound 169], for which, in test [1], the “mGlu3 PAM Max” value came to 76.1 ± 5.1% and the EC50 is 2.99 ± 0.359 µM. Also, in test [2], the “mGlu2 PAM Max” value worked out at 77.6 ± 1.8% and the 50% effective concentration (EC50) amounted to 0.278 ± 0.049 µM.
Regarding `Cc1c(OCc2cccc(-c3ccc(Cl)c(C(=O)O)c3)c2)ccc(C(=O)CC(C)(C)C)c1O` [compound 133, 4-Chloro-3′-((4-(3,3-dimethylbutanoyl)-3-hydroxy-2-methylphenoxy)methyl)-[1,1′-biphenyl]-3-carboxylic acid], in test [1], the 50% effective concentration (EC50) came out at 1.71 ± 0.888 µM and the Emax turned out to be 70.9 ± 3.6%. Further, in test [2], the EC50 was found to be 0.433 ± 0.099 µM and the Emax was determined as 90.2 ± 4.1%.
The matching figures for `Cc1c(OCc2cccc(-c3cccc(CC(=O)O)c3)c2)ccc(C(=O)CC(C)(C)C)c1O` [compound 145, 2-(3′-((4-(3,3-dimethylbutanoyl)-3-hydroxy-2-methylphenoxy)methyl)-[1,1′-biphenyl]-3-yl)acetic acid]: 3.94 ± 1.32 µM, 79.1 ± 15%, 1.36 ± 0.259 µM and 93.4 ± 11.4%.
Regarding `COc1ccc(C(=O)NC2CC2)cc1OCCCCOc1ccc(C(=O)CC(C)(C)C)c(O)c1C` [compound 109, N-Cyclopropyl-3-(4-(4-(3,3-dimethylbutanoyl)-3-hydroxy-2-methylphenoxy)butoxy)-4-methoxybenzamide], the EC50 was found to be 0.578 ± 0.012 µM in test [1] and 0.765 ± 0.005 µM in test [2]. Also, the Emax in test [1] was 106 ± 5.1%; in test [2], 101.5 ± 0.9%.
Turning to `Cc1c(OCc2cccc(-c3cccc(C#N)c3)c2)ccc(C(=O)CC(C)(C)C)c1O` [compound 151, 3′-((4-(3,3-Dimethylbutanoyl)-3-hydroxy-2-methylphenoxy)methyl)-[1,1′-biphenyl]-3-carbonitrile], in test [1], the EC50 was greater than 10 µM and the Emax was 35.5 ± 3.8%. For the same compound, in test [2], the EC50 is greater than 10 µM and the Emax came to 50.2 ± 7.4%.
